Test results reported in paper PMC10628242, “Enzymatic β-elimination in natural product O- and C-glycoside deglycosylation” (Nature Communications, 2023).

Target: T1, PuCGE (human intestinal bacterium PUE, UniProt A0A3Q9WUX0+A0A3Q9WXL1, A0A3Q9WUX0:Y39F)
T1 construct: gene dgpC; heterodimer alpha (39,205 Da) + beta (18,313 Da), co-expressed from pET-Duet-1 in E. coli; N-terminal Strep-tag II; Mn2+ enzyme
T1 sequence (A0A3Q9WXL1 1-324): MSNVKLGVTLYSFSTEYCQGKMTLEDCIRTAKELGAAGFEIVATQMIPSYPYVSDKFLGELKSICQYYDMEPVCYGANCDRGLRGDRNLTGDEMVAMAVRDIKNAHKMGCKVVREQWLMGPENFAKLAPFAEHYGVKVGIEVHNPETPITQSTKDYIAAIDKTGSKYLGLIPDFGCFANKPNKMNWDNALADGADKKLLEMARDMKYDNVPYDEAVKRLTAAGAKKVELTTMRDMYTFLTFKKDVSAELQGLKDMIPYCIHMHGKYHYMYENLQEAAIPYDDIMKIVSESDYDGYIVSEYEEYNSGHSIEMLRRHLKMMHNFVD
T1 sequence (A0A3Q9WUX0 1-142 Y39F): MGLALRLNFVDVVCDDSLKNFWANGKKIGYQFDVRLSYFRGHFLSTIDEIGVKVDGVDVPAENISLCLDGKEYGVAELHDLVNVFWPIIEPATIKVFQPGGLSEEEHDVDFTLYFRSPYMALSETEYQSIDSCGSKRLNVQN
Test: HPLC of aglycone release
Format: biochemical
Conditions: 2.0 mM substrate; potassium phosphate pH 6.0, 37 °C; text puts Tyr39 in beta, plasmid name puts Y39F on alpha

O=C(CCc1ccc(O)cc1)c1c(O)cc(O)cc1O[C@@H]1O[C@H](CO)[C@@H](O)C(=O)[C@H]1O [3-keto-phlorizin, 3,5-dihydroxy-2-[3-(4-hydroxyphenyl)-1-oxopropyl]phenyl β-D-ribo-hexopyranosid-3-ulose]
HPLC of aglycone release: The mutated PuCGE exhibits only a minor loss of 3-keto-phlorizin activity
